{
  "source": "patent US8236984B2",
  "about": "“Compound and use thereof in the treatment of amyloidosis” (Pentraxin Therapeutics Ltd., priority 2007, dated 2012)",
  "molecular_target": "transthyretin Ile122 (Homo sapiens, UniProt P02766)",
  "assay": "Displacement of 125I-T4 from transthyretin in whole serum",
  "assay_type": "binding",
  "settings": "read-out: IC50 for displacement of T4 from transthyretin Ile122 in serum; whole serum of heterozygous subjects, mean",
  "from_the_text": "3.2.3.2. Quantitative studies in serum. […] The immunoprecipitate was recovered by centrifugation, washed twice with 0.1 M Tris, 0.1 M NaCl, pH 8.0 and counted.",
  "note": "pIC50: −log10 of the molar value.",
  "data": [
    {"smiles": "O=C(O)c1ccccc1Nc1cc(Cl)c(OCCCCCCCCCCCOc2c(Cl)cc(Nc3ccccc3C(=O)O)cc2Cl)c(Cl)c1", "note": "[4ajm15, 2,2′-(4,4′-(undecane-1,11-diylbis(oxy))bis(3,5-dichloro-4,1-phenylene))bis(azanediyl)dibenzoic acid]", "values": [
      {"measurement": "pIC50", "result": 4.53}
    ]}
  ]
}
